Measured values reported in paper PMC11274511, “Synthesis of Substituted 1,2,4-Triazole-3-Thione Nucleosides Using E. coli Purine Nucleoside Phosphorylase” (Biomolecules, 2024).
Read-outs that look alike come from different tables or passages of the source.

Key:
[1] = Cytotoxicity, trypan blue exclusion method; details: African green monkey
Experimental: (§1) Cytotoxicity was determined quantitatively by the trypan blue exclusion method. […] Negative control wells contained cells with maintenance medium.
(§2) After 72 h of cell culture incubation in the presence of a compound at a known concentration, the culture medium was harvested, the cells were treated with Versene solution, and suspended in the previously removed support medium. The resulting cell suspension was combined with 1% trypan blue solution in a ratio of 1:1. The number of live and stained cells was determined using a Goryaev camera (Minimed, Bryansk, Russia).

[2] = target: T1, E. coli purine nucleoside phosphorylase (PNP) (Escherichia coli, UniProt P0ABP8); experiment: Test reaction for 2-deoxyriboside synthesis (substrate test, HPLC); type: biochemical; details: for Deoxyriboside Content, % 1 h / Deoxyriboside Content, % 24 h: 1 mM base, 2 mM 2′-deoxyuridine, 10 mM KH2PO4, pH 7.0, 5.6 units PNP, 1.7 units UP, 50 °C; for Substrate of E. coli PNP (product formation according to HPLC): test reaction with 2′-deoxyuridine, PNP and UP
T1 construct: made in house; host or cells: E. coli ER2566
Experimental: Each reaction mixture (0.25 mL, pH 7.0) contained 1 mM of the tested heterocyclic base, 2 mM 2′-deoxyuridine, 10 mM KH2PO4, and Escherichia coli purine nucleoside phosphorylase (5.6 units) and uridine phosphorylase (1.7 units). An activity unit is the amount (in µmol) of natural product (hypoxanthine or uracil) formed per minute. The reaction mixtures were incubated at 50 °C. Substrate and product quantities were determined using HPLC.
The test reactions contained the tested heterocyclic base, 2′-deoxyuridine, and both enzymes (PNP and UP).

HSV-1/L2(TK+) = experiment: microbe, parasite or virus in culture
Experimental: (§3) Herpes simplex virus type 1 (HSV-1) strain L2 was obtained from the State’s collection of viruses at FSBI «N. F. Gamaleya National Research Centre for Epidemiology and Microbiology, Russian Ministry of Health, Russia» («D. I. Ivanovsky Institute of Virology» subdivision).
(§4) Antiviral activity in vitro was measured by the method of the cytopathic effect (CPE) inhibition assay. In 96-well plastic plates with the 24 h generated cell monolayer, 2-fold serial dilutions of the compounds were prepared. Cells infected with MOI of 0.1 PFU/cell were incubated at 37 °C in 5% CO2 atmosphere. […] Antiviral activity was assessed by determining of IC50 and IC95.
(§5) Three controls were used: (1) Toxicity control. Uninfected cells were incubated in the presence of the drug in the same concentration range as in the experiment. (2) Virus control. […] (3) Cell control. Uninfected cell cultures were incubated in the maintenance medium, which contained no drug.

HSV-1/L2/R^ACV = experiment: microbe, parasite or virus in culture
Experimental: as §3, §4, §5

Vero E6 cells = experiment: Cytotoxicity, trypan blue exclusion method; details: for Reduction of cytotoxicity compared to base 7: ribosylation / deoxyribosylation of base 7
Experimental: as §1, §2

AURORA-A = test system: AURORA-A; design: method as in earlier work; details: cited from earlier work
FLT-3 = test system: FLT-3; design: method as in earlier work; details: cited from earlier work
c-TAK1 = test system: c-TAK1; design: method as in earlier work; details: cited from earlier work
[3] = Vero E6 cells, CC50, Vero E6 cells, 72 h, trypan blue
[4] = Human alphaherpesvirus 1, Vero C1008, 48 h
[5] = Human alphaherpesvirus 1, Vero C1008, 48 h, Strain HSV-1/L2(TK+), Vero E6, MOI 0.1 PFU/cell, 48 h
[6] = Vero E6 cells, 72 h, trypan blue
[7] = Strain HSV-1/L2(TK+), Vero E6, MOI 0.1 PFU/cell, 48 h
[8] = Strain HSV-1/L2/R^ACV, Vero E6, MOI 0.1 PFU/cell, 48 h

T1 sequence (P0ABP8 2-239): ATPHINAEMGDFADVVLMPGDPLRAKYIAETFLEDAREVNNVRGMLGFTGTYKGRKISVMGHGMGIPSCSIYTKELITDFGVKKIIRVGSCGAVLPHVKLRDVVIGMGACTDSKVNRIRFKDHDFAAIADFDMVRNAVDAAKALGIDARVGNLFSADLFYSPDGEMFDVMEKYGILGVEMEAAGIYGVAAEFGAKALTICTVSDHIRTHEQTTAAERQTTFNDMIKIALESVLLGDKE

O=C(CSc1nnc[nH]1)c1ccccc1 [Compound 5, 3-Phenacylthio-1,2,4-triazole]
CC50 at 72 h [1, 3]: 3346 ± 26.5 µM | Deoxyriboside Content, % 1 h [2]: 94% | Deoxyriboside Content, % 24 h [2]: 25% | Substrate of E. coli PNP (product formation according to HPLC) [2]: product’s formation was observed | IC95 (HSV-1/L2(TK+); [4]): 2280 ± 20.5 µM | IC50 (HSV-1/L2(TK+); [5]): 570.1 ± 5.1 µM | SI (ratio of CC50 to IC50) (HSV-1/L2(TK+); Strain HSV-1/L2(TK+)): 6 | IC50 (HSV-1/L2/R^ACV; [4]): 570.1 ± 5.1 µM | IC95 (HSV-1/L2/R^ACV; [4]): 2280 ± 20.5 µM | SI (ratio of CC50 to IC50) (HSV-1/L2/R^ACV; Strain HSV-1/L2/R^ACV): 6

5-Phenyl-1,2,4-triazole-3-thione [Compound 4]
CC50 (Vero E6 cells): > 5640 µM | CC50 (Vero E6 cells; [6]): > 5640 µM | Deoxyriboside Content, % 1 h [2]: 0% | Deoxyriboside Content, % 24 h [2]: 0% | Substrate of E. coli PNP (product formation according to HPLC) [2]: did not prove to be substrates | IC50 (HSV-1/L2(TK+); [7]): 2821 ± 25.4 µM | IC95 (HSV-1/L2(TK+); [7]): >5642.4 µM | IC50 (HSV-1/L2/R^ACV; [8]): 2821 ± 25.4 µM | IC95 (HSV-1/L2/R^ACV; [8]): >5642.4 µM

NC(=O)c1ncn([C@@H]2O[C@H](CO)[C@@H](O)[C@H]2O)n1 [Ribavirin, reference compound]
CC50 at 72 h [1]: > 2050 µM | IC95 (HSV-1/L2(TK+); [4]): > 2050 µM | IC50 (HSV-1/L2(TK+); [5]): 512 ± 20 µM | IC50 (HSV-1/L2/R^ACV; [4]): 1020 ± 39.9 µM | IC95 (HSV-1/L2/R^ACV; [4]): > 2050 µM

O=C(CSc1nc(-c2ccccc2)nn1[C@H]1C[C@H](O)[C@@H](CO)O1)c1ccccc1 [Compound 11, 1-(2-Deoxy-β-D-ribofuranosyl)-5-phenacylthio-3-phenyl-1,2,4-triazole]
CC50 at 72 h [1, 3]: 244 ± 6.2 µM | IC95 (HSV-1/L2(TK+); [4]): 149 ± 5.1 µM | IC50 (HSV-1/L2(TK+); [5]): 149 ± 5.1 µM | SI (ratio of CC50 to IC50) (HSV-1/L2(TK+); Strain HSV-1/L2(TK+)): 2 | IC50 (HSV-1/L2/R^ACV; [4]): 149 ± 5.1 µM | IC95 (HSV-1/L2/R^ACV; [4]): 149 ± 5.1 µM | SI (ratio of CC50 to IC50) (HSV-1/L2/R^ACV; Strain HSV-1/L2/R^ACV): 2

O=C(CSc1ncn([C@H]2C[C@H](O)[C@@H](CO)O2)n1)c1ccccc1 [Compound 9, 1-(2-Deoxy-β-D-ribofuranosyl)-3-phenacylthio-1,2,4-triazole]
CC50 at 72 h [1, 3]: 920 ± 77.2 µM | IC95 (HSV-1/L2(TK+); [4]): 835 ± 51.8 µM | IC50 (HSV-1/L2(TK+); [5]): 418 ± 25.9 µM | SI (ratio of CC50 to IC50) (HSV-1/L2(TK+); Strain HSV-1/L2(TK+)): 2 | IC50 (HSV-1/L2/R^ACV; [4]): 418 ± 25.9 µM | IC95 (HSV-1/L2/R^ACV; [4]): 835 ± 51.8 µM | SI (ratio of CC50 to IC50) (HSV-1/L2/R^ACV; Strain HSV-1/L2/R^ACV): 2

O=C(CSc1ncn([C@@H]2O[C@H](CO)[C@@H](O)[C@H]2O)n1)c1ccccc1 [Compound 8, 3-Phenacylthio-1-(β-D-ribofuranosyl)-1,2,4-triazole]
CC50 at 72 h [1, 3]: > 3030 µM | IC95 (HSV-1/L2(TK+); [4]): 1520 ± 45.8 µM | IC50 (HSV-1/L2(TK+); [5]): 379 ± 11.4 µM | SI (ratio of CC50 to IC50) (HSV-1/L2(TK+); Strain HSV-1/L2(TK+)): >8 | IC50 (HSV-1/L2/R^ACV; [4]): 379 ± 11.4 µM | IC95 (HSV-1/L2/R^ACV; [4]): 3030 ± 91.5 µM | SI (ratio of CC50 to IC50) (HSV-1/L2/R^ACV; Strain HSV-1/L2/R^ACV): >8

O=C(CSc1nc(-c2ccccc2)nn1[C@@H]1O[C@H](CO)[C@@H](O)[C@H]1O)c1ccccc1 [Compound 10, 5-Phenacylthio-3-phenyl-1-(β-D-ribofuranosyl)-1,2,4-triazole]
CC50 at 72 h [1, 3]: 480 ± 6.2 µM | IC95 (HSV-1/L2(TK+); [4]): 305 ± 8.8 µM | IC50 (HSV-1/L2(TK+); [5]): 152 ± 4.4 µM | SI (ratio of CC50 to IC50) (HSV-1/L2(TK+); Strain HSV-1/L2(TK+)): 3 | IC50 (HSV-1/L2/R^ACV; [4]): 305 ± 8.8 µM | IC95 (HSV-1/L2/R^ACV; [4]): 305 ± 8.8 µM | SI (ratio of CC50 to IC50) (HSV-1/L2/R^ACV; Strain HSV-1/L2/R^ACV): 2

1,2,4-Triazole-3-thione [Compound 3]
CC50 (Vero E6 cells): 1885.7 ± 1.7 µM | Deoxyriboside Content, % 1 h [2]: 0% | Deoxyriboside Content, % 24 h [2]: 0% | Substrate of E. coli PNP (product formation according to HPLC) [2]: did not prove to be substrates | SI (ratio of CC50 to IC50) (HSV-1/L2(TK+); Strain HSV-1/L2(TK+)): 3 | IC50 (HSV-1/L2(TK+); [7]): 618 ± 3.7 µM | IC95 (HSV-1/L2(TK+); [7]): >1236.0 µM | SI (ratio of CC50 to IC50) (HSV-1/L2/R^ACV; Strain HSV-1/L2/R^ACV): 3 | IC50 (HSV-1/L2/R^ACV; [8]): 618 ± 3.7 µM | IC95 (HSV-1/L2/R^ACV; [8]): >1236.0 µM

CCCCSc1n[nH]c(-c2ccccc2)n1 [Compound 7, 3-Butylthio-5-phenyl-1,2,4-triazole]
CC50 at 72 h [1, 3]: 91.1 µM | Increase of toxicity compared to base 4 (Vero E6 cells; CC50 91.07 vs. 5642.39 µM): 62 fold | CC50 (Vero E6 cells; [6]): 91.1 ± 0.7 µM | Activity against kinase AURORA-A (AURORA-A): active | Deoxyriboside Content, % 1 h [2]: 62% | Deoxyriboside Content, % 24 h [2]: 41% | Substrate of E. coli PNP (product formation according to HPLC) [2]: product’s formation was observed | Activity against kinase FLT-3 (FLT-3): active | Activity against kinase c-TAK1 (c-TAK1): active | IC95 (HSV-1/L2(TK+); [4]): > 67 µM | IC50 (HSV-1/L2(TK+); [5]): 33.5 µM | SI (ratio of CC50 to IC50) (HSV-1/L2(TK+); Strain HSV-1/L2(TK+)): 3 | IC50 (HSV-1/L2(TK+); [7]): 33.5 ± 0.4 µM | IC50 (HSV-1/L2/R^ACV; [4]): 67 ± 0.8 µM | IC95 (HSV-1/L2/R^ACV; [4]): > 67 µM | SI (ratio of CC50 to IC50) (HSV-1/L2/R^ACV; Strain HSV-1/L2/R^ACV): 1

CCCCSc1nc(-c2ccccc2)nn1[C@@H]1O[C@H](CO)[C@@H](O)[C@H]1O [Compound 12, 5-Butylthio-3-phenyl-1-(β-D-ribofuranosyl)-1,2,4-triazole]
CC50 at 72 h [1, 3]: 657 µM | CC50 (Vero E6 cells; [6]): 658 ± 13.9 µM | Reduction of cytotoxicity compared to base 7 (Vero E6 cells): more than 7 times | IC95 (HSV-1/L2(TK+); [4]): 375 ± 6.4 µM | IC50 (HSV-1/L2(TK+); [5]): 188 ± 3.2 µM | Decrease of antiviral activity compared to base 7 (HSV-1/L2(TK+); IC50 based): 6 fold | SI (ratio of CC50 to IC50) (HSV-1/L2(TK+); Strain HSV-1/L2(TK+)): 4 | IC50 (HSV-1/L2/R^ACV; [4]): 188 ± 3.2 µM | IC95 (HSV-1/L2/R^ACV; [4]): 375 ± 6.4 µM | SI (ratio of CC50 to IC50) (HSV-1/L2/R^ACV; Strain HSV-1/L2/R^ACV): 4

CCCCSc1nc(-c2ccccc2)nn1[C@H]1C[C@H](O)[C@@H](CO)O1 [Compound 13, 5-Butylthio-1-(2-deoxy-β-D-ribofuranosyl)-3-phenyl-1,2,4-triazole]
CC50 at 72 h [1, 3]: 364 ± 6 µM | Reduction of cytotoxicity compared to base 7 (Vero E6 cells): 4 times | IC95 (HSV-1/L2(TK+); [4]): 93.8 ± 2.4 µM | IC50 (HSV-1/L2(TK+); [5]): 23.4 µM | SI (ratio of CC50 to IC50) (HSV-1/L2(TK+); Strain HSV-1/L2(TK+)): 16 | IC50 (HSV-1/L2(TK+); [7]): 23.4 ± 0.6 µM | IC50 (HSV-1/L2/R^ACV; [4]): 46.9 ± 1.2 µM | IC95 (HSV-1/L2/R^ACV; [4]): 93.8 ± 2.4 µM | SI (ratio of CC50 to IC50) (HSV-1/L2/R^ACV; Strain HSV-1/L2/R^ACV): 8
